# From US8802696B2, “7-([1,2,4]triazolo[1,5-a]pyridin-6-yl)-4-(3,4-dichlorophenyl)-1,2,3,4-tetrahydroisoqu inoli and use thereof” (Albany Molecular Research, Inc., priority 2009, dated 2014)
# Counter-ions that a name gives are not always drawn.
# Legend:
# SERT = test: Ex vivo binding occupancy assay, SERT ([3H]citalopram, brain tissue); details: dose 1 mg/kg, time point 3 hour, ex vivo binding in brain tissue
# Text: The general procedure for brain tissue collection and transporter occupancy assessment is briefly described as follows. Mice were sacrificed by asphyxiation in CO2, rats by decapitation and dogs by IV injection of euthanasia solution. For mice and rats, after the brains were removed from the skull, the forebrain tissue (removal of the brainstem and cerebellum) was used for SERT, NET, and DAT occupancy assessment. In dogs, the striatum was dissected for DAT occupancy and the remaining forebrain tissue (without the striatum, brainstem, and cerebellum) was used for SERT and NET occupancy assessment. The brain tissues were frozen in chilled isopentane and stored at −80° C. until homogenization.
# The brain tissues were thawed and then homogenized using a polytron homogenizer (Kinematica). Sample aliquots were frozen immediately and stored at −80° C. Protein content was measured for each sample using a Coomassie protein assay kit (Pierce).
# On the day of ex vivo binding for occupancy assessment, frozen sample aliquots were thawed and needle homogenized, and 100 μg of the tissue was incubated for SERT, NET, and DAT binding under assay conditions summarized in Table 1. […] Radioligand was measured using a Wallac Microbeta liquid scintillation counter.
# The specific binding was calculated by subtracting the value of the non-specific binding from that of the total binding in each sample. […]
# hDAT = target: T1, hDAT (Homo sapiens, UniProt Q01959); test: DAT radioligand binding assay ([125I]RTI-55, HEK-293 membranes); details: recombinant HEK-293 membranes
# T1 construct: expressed in transfected cells; host or cells: HEK-293
# T1 sequence (Q01959 whole entry): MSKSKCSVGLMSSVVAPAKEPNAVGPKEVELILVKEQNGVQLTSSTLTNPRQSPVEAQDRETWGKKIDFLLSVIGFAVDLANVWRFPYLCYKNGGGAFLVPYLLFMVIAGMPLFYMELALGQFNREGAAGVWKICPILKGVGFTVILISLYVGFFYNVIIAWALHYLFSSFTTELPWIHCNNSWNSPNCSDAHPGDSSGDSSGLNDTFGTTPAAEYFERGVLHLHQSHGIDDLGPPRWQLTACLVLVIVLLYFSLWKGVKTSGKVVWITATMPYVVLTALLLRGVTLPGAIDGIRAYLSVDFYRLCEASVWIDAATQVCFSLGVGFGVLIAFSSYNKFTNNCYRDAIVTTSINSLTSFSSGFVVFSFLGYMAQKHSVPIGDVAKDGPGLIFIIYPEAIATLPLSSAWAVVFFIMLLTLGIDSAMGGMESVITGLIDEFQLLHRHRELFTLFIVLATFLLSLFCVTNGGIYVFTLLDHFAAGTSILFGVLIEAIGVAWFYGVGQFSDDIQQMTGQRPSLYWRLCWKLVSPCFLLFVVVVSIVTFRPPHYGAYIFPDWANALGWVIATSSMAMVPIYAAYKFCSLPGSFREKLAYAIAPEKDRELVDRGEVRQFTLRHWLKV
# Description: (§1) Recombinant HEK-293 cells expressing either the hSERT, hDAT, or hNET proteins were harvested from T-175 flasks as follows. The medium was removed from the flasks and the cells rinsed with HBSS without Ca and without Mg. The cells were then incubated for 5-10 minutes in 10 mM Tris-Cl, pH 7.5, 5 mM EDTA before the cells were lifted with a combination of pipetting and scraping, as needed. The cell suspension was collected into centrifuge bottles and homogenized for 30 seconds with a Polytron homogenizer. The suspension was centrifuged for 30 minutes at 32,000×g, 4° C. The supernatant was decanted and the pellet resuspended and homogenized in 50 mM Tris-Cl, pH 7.5, 1 mM EDTA for 10 seconds. […]
# (§2) Compounds were dissolved in 100% DMSO at a concentration 100 times the desired highest assay concentration, serially diluted 1:3 in 100% DMSO, and 0.4 μl/well of each solution was dispensed to a Nunc polypropylene, round bottom, 384-well plate. […] The plates were air-dried overnight, 12 μl/well of MicroScint scintillation fluid added, and the plates counted in a Trilux.
# (§3) The raw data was normalized to percent inhibition using control wells defining 0% (DMSO only) and 100% (selective inhibitor) inhibition which were run on each plate. […] The radioligand concentration chosen for each assay corresponds to the Kd concentration determined through saturation binding analysis for each assay.
# hSERT = target: T2, hSERT (Homo sapiens, UniProt P31645); test: SERT radioligand binding assay ([125I]RTI-55, HEK-293 membranes); details: recombinant HEK-293 membranes
# T2 construct: expressed in transfected cells; host or cells: HEK-293
# T2 sequence (P31645 whole entry): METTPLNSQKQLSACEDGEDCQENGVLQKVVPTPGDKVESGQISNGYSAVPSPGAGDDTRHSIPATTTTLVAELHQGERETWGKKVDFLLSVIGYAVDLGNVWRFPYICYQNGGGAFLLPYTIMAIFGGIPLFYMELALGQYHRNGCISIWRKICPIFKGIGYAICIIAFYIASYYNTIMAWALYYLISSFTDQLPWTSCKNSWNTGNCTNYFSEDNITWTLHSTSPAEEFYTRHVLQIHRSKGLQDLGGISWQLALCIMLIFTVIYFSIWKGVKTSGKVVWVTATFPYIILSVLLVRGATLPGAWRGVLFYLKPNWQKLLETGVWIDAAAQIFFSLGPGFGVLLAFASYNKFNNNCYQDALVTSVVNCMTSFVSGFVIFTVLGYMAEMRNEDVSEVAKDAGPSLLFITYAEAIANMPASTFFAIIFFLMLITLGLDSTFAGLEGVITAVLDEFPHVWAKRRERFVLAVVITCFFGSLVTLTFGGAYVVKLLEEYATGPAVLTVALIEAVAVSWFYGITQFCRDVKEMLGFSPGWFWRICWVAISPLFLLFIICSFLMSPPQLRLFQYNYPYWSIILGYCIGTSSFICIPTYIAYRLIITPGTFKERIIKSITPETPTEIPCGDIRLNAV
# Description: as §1, with “seconds. The suspension was then centrifuged again for 30 minutes at 32,000×g, 4° C. The supernatant was decanted and the pellet resuspended in 50 mM Tris-Cl, pH 7.5, 1 mM EDTA and briefly homogenized.” for “seconds.”
# as §2
# The radioligand concentration chosen for each assay corresponds to the Kd concentration determined through saturation binding analysis for each assay.
# hNET = target: T3, hNET (Homo sapiens, UniProt P23975); test: NET radioligand binding assay ([3H]nisoxetine, HEK-293 membranes); details: recombinant HEK-293 membranes
# T3 construct: expressed in transfected cells; host or cells: HEK-293
# T3 sequence (P23975 whole entry): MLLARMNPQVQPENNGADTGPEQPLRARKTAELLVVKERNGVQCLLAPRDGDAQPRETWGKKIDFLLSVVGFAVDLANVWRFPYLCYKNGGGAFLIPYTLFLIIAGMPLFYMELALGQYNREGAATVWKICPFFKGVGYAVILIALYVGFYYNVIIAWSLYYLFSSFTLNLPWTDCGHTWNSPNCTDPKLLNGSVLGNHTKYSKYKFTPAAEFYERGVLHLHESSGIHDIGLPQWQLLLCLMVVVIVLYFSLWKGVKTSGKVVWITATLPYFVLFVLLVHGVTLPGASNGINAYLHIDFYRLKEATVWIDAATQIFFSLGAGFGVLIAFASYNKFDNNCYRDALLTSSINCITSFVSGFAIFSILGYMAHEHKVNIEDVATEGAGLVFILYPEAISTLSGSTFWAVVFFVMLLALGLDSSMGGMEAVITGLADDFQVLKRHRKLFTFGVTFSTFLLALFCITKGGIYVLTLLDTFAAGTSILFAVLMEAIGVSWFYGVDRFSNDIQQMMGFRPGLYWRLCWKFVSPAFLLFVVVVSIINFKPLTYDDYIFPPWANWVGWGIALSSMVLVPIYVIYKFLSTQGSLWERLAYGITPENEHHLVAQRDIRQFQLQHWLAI
# Description: as §1
# as §2, with “1.0” for “0.4”
# as §3
compound,measurement,setting,value
"Clc1ccc(C2CNCc3cc(-c4ccc5ncnn5c4)ccc32)cc1Cl (single isomer, unassigned; (-)) [Example 1 (−)-enantiomer, (−)-7-([1,2,4]triazolo[1,5-a]pyridin-6-yl)-4-(3,4-dichlorophenyl)-1,2,3,4-tetrahydroisoquinoline]",SERT Occupancy %,SERT,41%
same,IC50,hDAT,105 nM
same,IC50,hSERT,4.2 nM
same,IC50,hNET,4.8 nM
"Clc1ccc(C2CNCc3cc(-c4ccc5ncnn5c4)ccc32)cc1Cl (single isomer, unassigned; enantiomer 7) [Example 1 (+)-enantiomer, 7-([1,2,4]triazolo[1,5-a]pyridin-6-yl)-4-(3,4-dichlorophenyl)-1,2,3,4-tetrahydroisoquinoline, L-tartrate salt]",SERT Occupancy %,SERT; L-tartrate salt,75%
same,IC50,hDAT,30.8 nM
same,IC50,hSERT,1.8 nM
same,IC50,hNET,26 nM
